Assay results as given in patent publication US10294218B2 (VIROSTATICS SRL, priority 2012, dated 2019).
pIC50: −log10 of the molar value. Structures can show the parent of a compound that is named as a salt. Where two headings read alike, the source gives them in different places.

Columns and labels:
Primary T cells [1] = test: Cytotoxicity, percentage of viable cells by flow cytometry; type: cell-based; settings: viability
Experimental: Primary T cells are cultured and treated with different concentrations of the test compound. Viability is analysed by measuring through flow cytometry based techniques the percentage of viable cells, compared to untreated control=100%).
(§1) In Tables 2, 3 and 4, ND means Not Determined.

Primary T cells [2] = test: Antiproliferative activity (AP), mitotic index by flow cytometry; type: cell-based; settings: read-out: AP50 (Inhibitory concentration 50% for antiproliferative capacity)
Experimental: Primary T cells are cultured and exposed to different concentrations of the test compounds. Cell proliferation is analysed by measuring mitotic index (ie the number of cell divisions a population of cells undergoes) through flow cytometry based techniques. Mitotic index is expressed as percentage of untreated control. Inhibition of cell proliferation (AP) is then calculated (AP=100 minus % mitotic index compared to control, AP of control=0%). Inhibitory concentration 50% for antiproliferative capacity (AP50) is calculated.
as §1

[3] = system: laboratory strain of HIV-1; test: Antiviral activity against HIV (AV), p24 in infected activated primary T cells; type: cell-based; settings: for pIC50: read-out: AV50 (Inhibitory concentration 50% for antiviral activity); for antiviral and antiproliferative activity and cytotoxicity profile (in words): summary of AV, AP and cytotoxicity assays
Experimental: Activated primary T cells are infected with a laboratory strain of HIV-1, then cultured and exposed to different concentrations of the test compounds. HIV replication is analysed by measuring the viral protein p24 and expressed as percentage of untreated control. Inhibition of viral replication (AV) is then calculated (AV=100 minus the % p24 compared to control, AV of control=0%). Inhibitory concentration 50% for antiviral activity (AV50) is calculated.
as §1

[4] = target: human CDK9/CyclinT kinase complex (Homo sapiens (Human), UniProt P50750); test: In vitro CDK9/CyclinT assay (IMAP fluorescent polarization); type: biochemical
Experimental: The activity of the compounds described in the present invention can be determined by measuring the phosphorylation of a fluorescently-labeled peptide by human CDK9/CyclinT kinase complex by fluorescent polarization using a commercially available IMAP Screening Express Assay Kit (Molecular devices).
Test compounds were diluted in 100% DMSO to 5 mM stock concentration, then further dilutions were made in H2O or 100% DMSO to desirable concentrations.
Each reaction consisted of 5 nM enzyme: CDK9/CyclinT (Proqinase cat#0371-0345-1), 400 nM TAMRA-Rbtide (synthetic 15-mer peptide derived from human retinoblastoma tumor suppressor protein labeled with TAMRA dye, Genecust Europe), 12 μM ATP (=Kmapp, Sigma-Aldrich) and kinase buffer: 20 mM MOPS pH 7 (Sigma-Aldrich), 1 mM DTT (Sigma-Aldrich), 10 mM MgCl2 (Sigma-Aldrich), 0.01% Tween 20 (Sigma-Aldrich).
For each reaction, 4 or 6 μl containing TAMRA-Rbtide, ATP and kinase buffer were combined with 2 μl diluted compound in H2O or 0.028 μl compound in 100% DMSO. The kinase reaction was started by the addition of 2 μl diluted enzyme. The reaction was allowed to run for 1 hour at room temperature. The reaction was stopped by adding 15 μl IMAP beads (1:400 beads in progressive (100% buffer A) 1× buffer).

[5] = Human immunodeficiency virus 1, T-cell
[6] = T-cell, primary T cells, mitotic index

Chain of human CDK9/CyclinT kinase complex (P50750 whole entry): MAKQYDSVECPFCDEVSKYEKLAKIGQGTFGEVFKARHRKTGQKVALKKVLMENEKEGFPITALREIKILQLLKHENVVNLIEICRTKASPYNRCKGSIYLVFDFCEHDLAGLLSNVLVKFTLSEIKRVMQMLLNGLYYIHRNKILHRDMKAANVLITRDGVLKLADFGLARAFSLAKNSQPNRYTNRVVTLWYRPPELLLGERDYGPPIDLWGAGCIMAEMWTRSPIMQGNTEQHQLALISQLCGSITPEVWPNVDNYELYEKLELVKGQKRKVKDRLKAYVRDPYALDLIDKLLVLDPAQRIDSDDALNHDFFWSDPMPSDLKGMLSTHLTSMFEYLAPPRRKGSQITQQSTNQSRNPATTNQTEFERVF
Chain of human CDK9/CyclinT kinase complex (O60563 whole entry partner): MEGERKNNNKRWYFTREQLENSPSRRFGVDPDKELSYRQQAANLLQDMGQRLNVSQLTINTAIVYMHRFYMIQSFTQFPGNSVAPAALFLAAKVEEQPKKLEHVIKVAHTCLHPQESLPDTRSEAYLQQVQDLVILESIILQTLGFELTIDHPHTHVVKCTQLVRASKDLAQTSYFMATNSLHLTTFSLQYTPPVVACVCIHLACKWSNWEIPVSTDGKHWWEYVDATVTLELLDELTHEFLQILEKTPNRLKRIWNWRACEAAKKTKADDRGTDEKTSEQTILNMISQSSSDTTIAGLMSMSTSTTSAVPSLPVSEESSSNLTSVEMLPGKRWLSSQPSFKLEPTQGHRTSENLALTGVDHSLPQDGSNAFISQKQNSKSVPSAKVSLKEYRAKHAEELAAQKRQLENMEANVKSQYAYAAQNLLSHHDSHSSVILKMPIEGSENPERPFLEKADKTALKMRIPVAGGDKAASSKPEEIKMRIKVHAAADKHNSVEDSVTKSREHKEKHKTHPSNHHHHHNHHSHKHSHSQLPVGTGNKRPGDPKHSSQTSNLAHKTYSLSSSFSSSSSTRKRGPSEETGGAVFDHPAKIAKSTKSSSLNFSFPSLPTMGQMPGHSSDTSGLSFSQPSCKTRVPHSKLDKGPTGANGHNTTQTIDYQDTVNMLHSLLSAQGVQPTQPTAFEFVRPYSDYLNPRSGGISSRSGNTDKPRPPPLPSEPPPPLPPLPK

SMILES | TD50 (Toxic dose 50%) (Primary T cells [1]) [µM] | pIC50 (Primary T cells [2]; T-cell) | pIC50 [3, 5] | also measured
COc1ccc(Nc2cc(-c3ccccc3OC)ncn2)cc1NC(=O)OCC(Cl)(Cl)Cl [Example 27, 2,2,2-Trichloroethyl 2-methoxy-5-(6-(2-methoxyphenyl)pyrimidin-4-ylamino)phenylcarbamate] | >0.5 | < 6.30 | < 6.30 | –
CNCc1cc(Nc2cc(-c3ccccc3OC)ncn2)ccc1OC [Example 37, N-(4-Methoxy-3-((methylamino)methyl)phenyl)-6-(2-methoxyphenyl)pyrimidin-4-amine] | 2 | – | – | pIC50 (Primary T cells [2]; primary T cells, mitotic index): 5.70; pIC50 ([3]; HIV-1 infected activated primary T cells, p24): < 5.82
CC[C@H](CO)Nc1nc(NCc2ccccc2)c2ncn(C(C)C)c2n1 [Roscovitine, reference compound] | 8 | – | – | anti-HIV and cytotoxicity profile (in words) ([3]; summary of AV and cytotoxicity assays): poor anti-HIV and cytotoxicity profile
COC(=O)Nc1cc(Nc2cc(-c3ccc(F)cc3OC)ncn2)ccc1OC [Example 118, {5-[6-(4-Fluoro-2-methoxy-phenyl)-pyrimidin-4-ylamino]-2-methoxy-phenyl}-carbamic Acid Methyl Ester] | >2 | – | 5.82 | –
COc1ccc(Nc2cc(-c3ccccc3OC)ncn2)cc1OCc1ccccc1 [Example 36, N-(3-(Benzyloxy)-4-methoxyphenyl)-6-(2-methoxyphenyl)pyrimidin-4-amine] | >5 | < 5.30 | – | –
COc1ccccc1-c1cc(Nc2ccc(N(C)C)cc2)ncn1 [Example 5, N^1-(6-(2-methoxyphenyl)pyrimidin-4-yl)-N^4,N^4-dimethylbenzene-1,4-diamine] | >10 | 6.82 | 6.52 | antiviral and antiproliferative activity and cytotoxicity profile (in words) [3]: good antiviral and antiproliferative activity and a good cytotoxicity profile
COc1ccc(Nc2cc(-c3ccccc3OC)ncn2)cc1CN1C(=O)c2ccccc2C1=O [Example 3, 2-(2-Methoxy-5-(6-(2-methoxyphenyl)pyrimidin-4-ylamino)benzyl)isoindoline-1,3-dione] | >5 | < 6.00 | – | –
COc1ccc(Nc2cc(-c3ccccc3OC)ncn2)cc1OCCN1CCOCC1 [Example 8, N-(4-Methoxy-3-(2-morpholinoethoxy)phenyl)-6-(2-methoxyphenyl)pyrimidin-4-amine] | >1.5 | < 5.82 | 6.40 | –
COc1ccccc1-c1cc(Nc2ccc(Cl)c(CN3C(=O)c4ccccc4C3=O)c2)ncn1 [Example 20, 2-(2-Chloro-5-(6-(2-methoxyphenyl)pyrimidin-4-ylamino)benzyl)isoindoline-1,3-dione] | >0.5 | < 6.30 | < 5.82 | –
COc1ccccc1-c1cc(Nc2ccc(Cl)c(O)c2)ncn1 [Example 107, 2-Chloro-5-[6-(2-methoxy-phenyl)-pyrimidin-4-ylamino]-phenol Hydrochloride] | – | – | – | pIC50 [4]: > 6.00
COc1ccc(Nc2cc(-c3ccc(F)cc3OC)ncn2)cc1NC(C)=O [Example 117, N-{5-[6-(4-Fluoro-2-methoxy-phenyl)-pyrimidin-4-ylamino]-2-methoxy-phenyl}-acetamide] | >2 | – | 6.70 | –
COc1cc(F)c(Nc2cc(-c3ccc(F)cc3OC)ncn2)cc1C(N)=O [Example 146, 4-Fluoro-5-[6-(4-fluoro-2-methoxy-phenyl)-pyrimidin-4-ylamino]-2-methoxy-benzamide] | – | 7.40 | > 8.52 | antiviral and antiproliferative activity and cytotoxicity profile (in words) [3]: good antiviral and antiproliferative activity and a good cytotoxicity profile
COc1ccccc1-c1cc(Nc2ccc(N3CCN(C)CC3)c(CO)c2)ncn1 [Example 17] | – | – | < 5.82 | pIC50 (Primary T cells [2]; [6]): 6.46
COc1ccc(Nc2cc(-c3ccccc3OC(C)C)ncn2)cc1N [Example 79, N^1-[6-(2-Isopropoxy-phenyl)-pyrimidin-4-yl]-4-methoxy-benzene-1,3-diamine] | – | – | 8.10 | pIC50 (Primary T cells [2]; [6]): > 7.10; antiviral and antiproliferative activity and cytotoxicity profile (in words) [3]: good antiviral and antiproliferative activity and a good cytotoxicity profile
CNC(=O)c1cc(Nc2cc(-c3ccccc3OC)ncn2)ccc1OC [Example 25, 2-Methoxy-5-(6-(2-methoxyphenyl)pyrimidin-4-ylamino)-N-methylbenzamide] | – | < 6.30 | < 6.30 | –
COc1ccc(Nc2cc(-c3ccccc3OC)ncn2)cc1CN [Example 43, N-(3-(Aminomethyl)-4-methoxyphenyl)-6-(2-methoxyphenyl)pyrimidin-4-amine] | – | – | – | pIC50 (Primary T cells [2]; [6]): 6.30; antiviral and antiproliferative activity and cytotoxicity profile (in words) [3]: good antiviral and antiproliferative activity and a good cytotoxicity profile
COc1ccc(Nc2cc(-c3ccccc3OC)ncn2)cc1C(=O)N(C)N [Example 46, 2-Methoxy-5-[6-(2-methoxy-phenyl)-pyrimidin-4-ylamino]-benzoic acid N-methyl-hydrazide] | >10 | – | 5.30 | –
COc1ccccc1-c1cc(Nc2ccc(N3CCN(C)CC3)c(S(N)(=O)=O)c2)ncn1 [Example 38, 5-(6-(2-Methoxyphenyl)pyrimidin-4-ylamino)-2-(4-methylpiperazin-1-yl)benzenesulfonamide] | – | – | > 5.82 | pIC50 (Primary T cells [2]; [6]): < 6.30
CCOc1ccccc1-c1cc(Nc2cc(C(N)=O)c(OC)cc2F)ncn1 [Example 145, 5-[6-(2-Ethoxy-phenyl)-pyrimidin-4-ylamino]-4-fluoro-2-methoxy-benzamide] | – | 7.30 | 7.52 | antiviral and antiproliferative activity and cytotoxicity profile (in words) [3]: good antiviral and antiproliferative activity and a good cytotoxicity profile
COc1ccccc1-c1cc(Nc2ccc(N(C)C)c(F)c2)ncn1 [Example 106, 2-Fluoro-N^4-[6-(2-methoxy-phenyl)-pyrimidin-4-yl]-N^1,N^1-dimethyl-benzene-1,4-diamine Hydrochloride] | – | – | – | pIC50 [4]: > 6.00
COC(=O)c1cc(Nc2cc(-c3ccccc3OC)ncn2)ccc1OC [Example 30, Methyl 2-methoxy-5-(6-(2-methoxyphenyl)pyrimidin-4-ylamino)benzoate] | – | – | < 5.82 | pIC50 (Primary T cells [2]; [6]): < 6.30
COc1ccc(Nc2cc(-c3ccc(F)cc3OC)ncn2)cc1OC(C)=O [Example 126, Acetic Acid 5-[6-(4-fluoro-2-methoxy-phenyl)-pyrimidin-4-ylamino]-2-methoxy-phenyl Ester] | >2 | – | 7.00 | –
COc1ccc(Nc2cc(-c3ccccc3OC)ncn2)cc1NS(=O)(=O)NC1CCCCC1 [Example 13, (2-Methoxy-5-(6-(2-methoxyphenyl)pyrimidin-4-ylamino)phenyl) (cyclohexylsulfamoyl)amine] | – | – | 6.52 | pIC50 (Primary T cells [2]; [6]): 6.22; antiviral and antiproliferative activity and cytotoxicity profile (in words) [3]: good antiviral and antiproliferative activity and a good cytotoxicity profile
COc1ccccc1-c1cc(Nc2ccc(F)c(Cn3cnc4ccccc43)c2)ncn1 [Example 40, N-(3-((1H-Benzo[d]imidazol-1-yl)methyl)-4-fluorophenyl)-6-(2-methoxyphenyl)pyrimidin-4-amine] | – | – | 6.30 | pIC50 (Primary T cells [2]; [6]): < 6.70
COc1ccc(Nc2cc(-c3ccc(F)cc3OC)ncn2)cc1C(N)=O [Example 128, 5-[6-(4-Fluoro-2-methoxy-phenyl)-pyrimidin-4-ylamino]-2-methoxy-benzamide] | – | 7.52 | > 8.52 | antiviral and antiproliferative activity and cytotoxicity profile (in words) [3]: good antiviral and antiproliferative activity and a good cytotoxicity profile
COC(=O)c1cc(Nc2cc(-c3ccccc3OC)ncn2)ccc1O [Example 21, Methyl 2-hydroxy-5-(6-(2-methoxyphenyl)pyrimidin-4-ylamino)benzoate] | – | – | > 5.82 | pIC50 (Primary T cells [2]; [6]): < 6.30
COc1ccc(Nc2cc(-c3cc(F)ccc3OC)ncn2)cc1C(N)=O [Example 127, 5-[6-(5-Fluoro-2-methoxy-phenyl)-pyrimidin-4-ylamino]-2-methoxy-benzamide] | – | > 7.10 | 8.52 | antiviral and antiproliferative activity and cytotoxicity profile (in words) [3]: good antiviral and antiproliferative activity and a good cytotoxicity profile
